What follows are compounds tested against T1, olfactory receptor OR5K1 (Homo sapiens, UniProt Q8NHB7) (assay: Antagonistic activity against the response of OR5K1 to Furaneol (luciferase reporter gene assay, HEK293 cells)). Details: Furaneol 3 mM, test substance 100 μM; OR5K1-expressing HEK293 cells; read-out: rate of inhibition of the response of OR5K1 to Furaneol.
T1 construct: Flag-Rho tag (N); expressed in transfected cells; host or cells: HEK293
T1 sequence (Q8NHB7 1-308): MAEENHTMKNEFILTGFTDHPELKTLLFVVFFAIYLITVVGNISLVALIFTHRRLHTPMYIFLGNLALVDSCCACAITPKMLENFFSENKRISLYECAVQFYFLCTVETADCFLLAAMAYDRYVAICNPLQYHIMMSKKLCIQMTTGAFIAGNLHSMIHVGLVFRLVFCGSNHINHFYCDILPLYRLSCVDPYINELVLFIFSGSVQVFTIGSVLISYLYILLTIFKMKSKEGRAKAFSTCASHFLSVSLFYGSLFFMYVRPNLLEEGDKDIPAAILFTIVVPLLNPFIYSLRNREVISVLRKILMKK
Assay type: cell-based
Method: 84 types of test substances were examined for their antagonistic activity against the response of the olfactory receptor OR5K1 to Furaneol.
Furaneol (3 mM) and each test substance (100 μM) were added to HEK293 cells allowed to express the olfactory receptor OR5K1 by the same procedures as in Example 2. The response of the olfactory receptor was measured to evaluate change in receptor response caused by the addition of the test substance.
The rate of inhibition of the receptor response by the test substance was calculated as follows: firefly luciferase-derived luminescence intensity (Y) in the olfactory receptor OR5K1-expressing cells without Furaneol stimulation was subtracted from firefly luciferase-derived luminescence intensity (X) induced by stimulation with Furaneol alone to determine receptor activity (X−Y) based on the stimulation with Furaneol alone. Likewise, the luminescence intensity (Y) in the cells without Furaneol stimulation was subtracted from luminescence intensity (Z) induced by stimulation with the mixture of Furaneol and the test substance to determine receptor activity (Z−Y) in the presence of the test substance. The rate of reduction in the receptor activity (Z−Y) in the presence of the test substance with respect to the receptor activity (X−Y) based on the stimulation with Furaneol alone was calculated according to an expression shown below to determine the rate of inhibition of the receptor response by the test substance. In this assay, a plurality of independent duplicate experiments were performed. An average of the experiments in each run was obtained. Rate of inhibition (%)={1−(Z−Y)/(X−Y)}×100

Row | SMILES | inhibition at 100 µM
1 | CC(=O)O[C@]1(C)CC[C@@]23C[C@@H]1C(C)(C)[C@@H]2CC[C@H]3C [Cedryl acetate] | ≥ 50%
2 | CC(C)=CCCC(C)=CC=O [Citral] | ≥ 75%
3 | CC1C/C=C/CCCCCCCCCC(=O)C1 [Muscenone(R) Delta, (5E)-3-Methylcyclopentadec-5-en-1-one] | ≥ 75%
4 | CC(=O)c1cc2c(cc1C)C(C)(C)C(C)CC2(C)C [Tonalid(R), 1-(5,6,7,8-tetrahydro-3,5,5,6,8,8-hexamethyl-2-naphthalenyl)-ethanone] | ≥ 75%
5 | CC(C)(C)c1ccc(CCC=O)cc1 [bourgeonal, 3-(4-tert-Butylphenyl)propanal] | ≥ 75%

Now from value to compound:

Row | inhibition at 100 µM | SMILES
6 | ≥ 75% | CC(=O)C1(C)CC2=C(CCCC2(C)C)CC1C (centres unmarked) [Iso E Super, 7-Acetyl-1,2,3,4,5,6,7,8-octahydro-1,1,6,7-tetramethyl-naphthalene]
7 | ≥ 40% | CC1(CO)CC1CC1CC2CC2(C)C1(C)C [Javanol(R), (1-Methyl-2-(1,2,2-trimethylbicyclo[3.1.0]-hex-3-ylmethyl)cyclopropyl)methanol]
8 | ≥ 75% | CC(=O)C1=C(C)C2CC3(C1)C(C)CCC3C2(C)C (centres unmarked) [acetylcedrene, 1-(2,3,4,7,8,8a-hexahydro-3,6,8,8-tetramethyl-1H-3a,7-methanoazulen-5-yl)-ethanone]
9 | ≥ 50% | CCC(=CCC1CC=C(C)C1(C)C)CO (centres unmarked) [bangalol, 2-Ethyl-4-(2,2,3-trimethyl-3-cyclopenten-1-yl)-2-buten-1-ol]
10 | ≥ 75% | CC1COCc2cc3c(cc21)C(C)(C)C(C)C3(C)C (centres unmarked) [galaxolide, 4,6,6,7,8,8-Hexamethyl-1,3,4,6,7,8-hexahydrocyclopenta[g]isochromene]
11 | ≥ 75% | CC(=O)/C(C)=C/C1C(C)=CCCC1(C)C (centres unmarked) [methyl ionone-G, (E)-3-Methyl-4-(2,6,6-trimethylcyclohex-2-en-1-yl)but-3-en-2-one]
12 | ≥ 75% | Cc1ccc(C(C)C)c(O)c1 [thymol, 5-Methyl-2-(1-methylethyl)-phenol]

Each compound was assayed against T1, olfactory receptor OR5K1 (assay: Luciferase reporter gene assay: response of olfactory receptors expressed on HEK293 cells to Furaneol). Details: Furaneol 0, 3, 10, 30, 100, 300, 1000 and 3000 μM; OR5K1 with human RTP1S on HEK293 cells; FIG. 2.
Assay type: cell-based
Method: HEK293 cells expressing each of 400 types of human olfactory receptors were prepared. Each reaction solution having the composition shown in Table 1 was prepared, then left standing for 15 minutes in a clean bench, and then added to each well of a 96-well plate (Becton, Dickinson and Company). Subsequently, the HEK293 cells (3×10^5 cells/cm^2) were inoculated thereto at 100 μL/well and then cultured at 37° C. for 24 hours in an incubator kept at 5% CO2.
The olfactory receptors expressed on the HEK293 cells are conjugated with intracellular Gαs to activate adenylate cyclase, thereby increasing intracellular cAMP levels. In this study, their responses to Furaneol were measured using luciferase reporter gene assay which involved monitoring increase in intracellular cAMP level as luminescence intensity derived from a firefly luciferase gene (fluc2P-CRE-hygro). […]
A medium was removed from the cultures prepared in the preceding paragraph 3). […] The luciferase activity was measured using Dual-Glo™ luciferase assay system (Promega Corp.) according to the instruction manual of the product. Firefly luciferase-derived luminescence intensity induced by stimulation with Furaneol was divided by luminescence intensity in the cells without Furaneol stimulation to calculate a value as fold increase, which was in turn used as an index for response intensity. […]

Row | concentration dependence of OR5K1 response to Furaneol | SMILES
13 | concentration-dependent response | CC1=C(O)C(=O)C(C)O1 (centres unmarked) [Furaneol, 2,5-dimethyl-4-hydroxy-3(2H)-furanone]

Same assay, conditions: Furaneol 3 mM; 400 types of human olfactory receptors screened in HEK293 cells; FIG. 1

Row | SMILES | response of olfactory receptor to Furaneol (fold increase of luminescence)
14 | CC1=C(O)C(=O)C(C)O1 (centres unmarked) [Furaneol, 2,5-dimethyl-4-hydroxy-3(2H)-furanone] | only the olfactory receptor OR5K1 exhibited a response

Source: patent publication US9274102B2, “Method of screening for an inhibitor of odor cause by furaneol” (Kao Corporation, priority 2013, dated 2016)
